Reference: patent US6015814A, “Quinazoline derivative” (Zeneca Limited, priority 1995, dated 2000)

Legend:
[1] = tested on: another carcinoma which does not express EGF receptor tyrosine kinase; conditions: cited from earlier work
[2] = tested on: human mammary carcinoma which expresses EGF receptor tyrosine kinase; conditions: athymic nude mice; cited from earlier work
[3] = target: T1, EGF receptor tyrosine kinase (Homo sapiens, UniProt P00533); assay: in vitro assay, inhibition of EGF receptor tyrosine kinase (test (a)); format: biochemical, human (A-431 cells, derived from human vulval carcinoma); conditions: approximately
T1 construct: Receptor tyrosine kinase was obtained in partially purified form from A-431 cells; endogenous in cells; host or cells: A-431 cells (human vulval carcinoma)
T1 sequence (P00533 25-1210): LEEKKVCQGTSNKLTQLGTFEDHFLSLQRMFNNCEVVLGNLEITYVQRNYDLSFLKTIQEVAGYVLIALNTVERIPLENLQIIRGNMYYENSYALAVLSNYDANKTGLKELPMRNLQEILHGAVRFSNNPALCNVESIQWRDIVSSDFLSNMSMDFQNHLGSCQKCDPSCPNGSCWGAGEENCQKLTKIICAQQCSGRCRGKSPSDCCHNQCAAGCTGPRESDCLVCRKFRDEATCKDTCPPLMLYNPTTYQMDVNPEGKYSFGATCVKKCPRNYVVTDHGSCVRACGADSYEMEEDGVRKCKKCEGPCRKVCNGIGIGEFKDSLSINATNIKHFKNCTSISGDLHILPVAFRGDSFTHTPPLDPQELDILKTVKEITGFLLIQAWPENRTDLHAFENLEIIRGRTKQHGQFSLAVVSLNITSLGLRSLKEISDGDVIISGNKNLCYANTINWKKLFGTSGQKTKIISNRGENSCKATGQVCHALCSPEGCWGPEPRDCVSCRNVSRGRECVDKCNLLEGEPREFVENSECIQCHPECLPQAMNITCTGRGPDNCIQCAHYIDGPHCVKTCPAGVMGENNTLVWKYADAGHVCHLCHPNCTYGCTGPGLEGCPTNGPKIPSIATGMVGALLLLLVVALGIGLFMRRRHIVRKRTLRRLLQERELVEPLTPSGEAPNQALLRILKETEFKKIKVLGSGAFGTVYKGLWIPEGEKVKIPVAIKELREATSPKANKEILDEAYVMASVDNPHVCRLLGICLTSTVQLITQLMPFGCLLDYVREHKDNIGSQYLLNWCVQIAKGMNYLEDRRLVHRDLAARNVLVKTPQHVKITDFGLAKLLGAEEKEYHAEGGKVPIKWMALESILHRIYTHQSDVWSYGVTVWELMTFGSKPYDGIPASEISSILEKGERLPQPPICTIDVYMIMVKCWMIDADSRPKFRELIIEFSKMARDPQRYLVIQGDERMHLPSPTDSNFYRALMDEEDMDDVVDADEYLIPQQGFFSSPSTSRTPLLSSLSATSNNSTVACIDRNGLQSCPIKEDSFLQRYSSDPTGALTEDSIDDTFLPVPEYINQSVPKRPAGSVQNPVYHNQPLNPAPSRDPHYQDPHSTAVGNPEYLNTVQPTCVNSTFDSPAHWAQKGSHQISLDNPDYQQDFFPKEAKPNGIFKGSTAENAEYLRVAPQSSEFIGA
Protocol: (a) An in vitro assay which determines the ability of a test compound to inhibit the enzyme EGF receptor tyrosine kinase. Receptor tyrosine kinase was obtained in partially purified form from A-431 cells (derived from human vulval carcinoma) by the procedures described below which are related to those described by Carpenter et al., J. Biol. Chem., 1979. 254, 4884, Cohen et al., J. Biol. Chem., 1982, 257, 1523 and by Braun et al., J. Biol. Chem., 1984, 259, 2051.
A-431 cells were grown to confluence using Dulbecco's modified Eagle's medium (DMEM) containing 5% fetal calf serum (FCS). The obtained cells were homogenised in a hypotonic borate/EDTA buffer at pH 10.1. The homogenate was centrifuged at 400 g for 10 minutes at 0-4° C. The supernatant was centrifuged at 25,000 g for 30 minutes at 0-4° C. […]
The test compound/EGF mixture solution (5 μl) was added to the test enzyme solution (10 μl) and the mixture was incubated at 0-4° C. for 30 minutes. […] Radioactivity present in the filter paper was measured using a liquid scintillation counter (Sequence A). […]
Receptor tyrosine kinase inhibition was calculated as follows: [formula]
The extent of inhibition was then determined at a range of concentrations of test compound to give an IC50 value.

[4] = tested on: human naso-pharyngeal cancer cell line KB; assay: in vitro assay, inhibition of EGF-stimulated growth of the human naso-pharyngeal cancer cell line KB (test (b)); format: cell-based; conditions: 72 h, KB cells, 3 days, approximately
Protocol: (b) An in vitro assay which determines the ability of a test compound to inhibit the EGF-stimulated growth of the human naso-pharyngeal cancer cell line KB.
KB cells were seeded into wells at a density of 1×10^4 -1.5×10^4 cells per well and grown for 24 hours in DMEM supplemented with 5% FCS (charcoal-stripped). Cell growth was determined after incubation for 3 days by the extent of metabolism of MTT tetrazolium dye to furnish a bluish colour. Cell growth was then determined in the presence of EGF (10 ng/ml) or in the presence of EGF (10 ng/ml) and a test compound at a range of concentrations. An ICSO value could then be calculated.

[5] = tested on: human vulval epidermoid carcinoma cell line A-431; assay: in vivo assay, inhibition of growth of A-431 xenografts in athymic nude mice (test (c)); design: species or system human xenografts in athymic nude mice (strain ONU:Alpk); conditions: daily dose of 50 mg/kg; usually oral; relative to untreated controls
Protocol: (c) An in-vivo assay in a group of athymic nude mice (strain ONU:Alpk) which determines the ability of a test compound (usually administered orally as a ball-milled suspension in 0.5% polysorbate) to inhibit the growth of xenografts of the human vulval epidermoid carcinoma cell line A-431. A-431 cells were maintained in culture in DMEM supplemented with 5% FCS and 2 mM glutamine. Freshly cultured cells were harvested by trypsinization and injected subcutaneously (10 million cells/0.1 ml/mouse) into both flanks of a number of donor nude mice. When sufficient tumour material was available (after approximately 9 to 14 days), fragments of tumour tissue were transplanted in the flanks of recipient nude mice (test day 0). Generally, on the seventh day after transplantation (test day 7) groups of 7 to 10 mice with similar-sized tumours were selected and dosing of the test compound was commenced. Once daily dosing of test compound was continued for a total of 13 days (test days 7 to 19 inclusive). In some studies the dosing of the test compound was continued beyond test day 19, for example to test day 26. In each case, on the following test day the animals were killed and the final tumour volume was calculated from measurements of the length and width of the tumours. Results were calculated as a percentage inhibition of tumour volume relative to untreated controls.

Compound | growth of another carcinoma [1] | growth of transplanted human mammary carcinoma [2] | IC50 [3] [nM] | IC50 [4] [nM] | inhibition of tumour volume, test (c) [5]
O=CN/C=C/c1cc(O)ccc1O [erbstatin] | without effect on the growth | specifically attenuates the growth | – | – | –
Fc1ccc(Nc2ncnc3ccc(NCCCN4CCCC4)cc23)cc1Cl [Example 1, 4-(3'-chloro-4'-fluoroanilino)-6-[3-(pyrrolidin-1-yl)propylamino]quinazoline] | – | – | ~76 | ~60 | greater than 50%
